US10077261B2, “Imidazolin-5-one derivative useful as FASN inhibitors for the treatment of cancer” (Janssen Pharmaceutica NV, priority 2012, dated 2018)

Biological target: T1, hFASN enzyme (full length) (Homo sapiens, UniProt P49327)
T1 construct: 10 μL hFASN enzyme (full length, 300 ng, purified in house); made in house
Assay: Fatty Acid Synthase (FASN) inhibition scintillation proximity assay
Assay type: biochemical
Settings: for inhibition at 10 µM: read-out: Human FASN % inhibition @ 10 μM, 10 μM test compound; for IC50: read-out: Human FASN pIC50 (converted)
How it was run: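 Compounds at 0.01–30 μM were mixed with 300 ng purified full-length enzyme in 100 mM KH2PO4 pH 7.5, 1 mM DTT. Substrates ³H-acetyl-CoA and malonyl-CoA were then converted, and bead addition stopped the reaction. Signal was normalised to low and high plate controls and fitted by 4-parameter nonlinear regression.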

T1 sequence (P49327 whole entry): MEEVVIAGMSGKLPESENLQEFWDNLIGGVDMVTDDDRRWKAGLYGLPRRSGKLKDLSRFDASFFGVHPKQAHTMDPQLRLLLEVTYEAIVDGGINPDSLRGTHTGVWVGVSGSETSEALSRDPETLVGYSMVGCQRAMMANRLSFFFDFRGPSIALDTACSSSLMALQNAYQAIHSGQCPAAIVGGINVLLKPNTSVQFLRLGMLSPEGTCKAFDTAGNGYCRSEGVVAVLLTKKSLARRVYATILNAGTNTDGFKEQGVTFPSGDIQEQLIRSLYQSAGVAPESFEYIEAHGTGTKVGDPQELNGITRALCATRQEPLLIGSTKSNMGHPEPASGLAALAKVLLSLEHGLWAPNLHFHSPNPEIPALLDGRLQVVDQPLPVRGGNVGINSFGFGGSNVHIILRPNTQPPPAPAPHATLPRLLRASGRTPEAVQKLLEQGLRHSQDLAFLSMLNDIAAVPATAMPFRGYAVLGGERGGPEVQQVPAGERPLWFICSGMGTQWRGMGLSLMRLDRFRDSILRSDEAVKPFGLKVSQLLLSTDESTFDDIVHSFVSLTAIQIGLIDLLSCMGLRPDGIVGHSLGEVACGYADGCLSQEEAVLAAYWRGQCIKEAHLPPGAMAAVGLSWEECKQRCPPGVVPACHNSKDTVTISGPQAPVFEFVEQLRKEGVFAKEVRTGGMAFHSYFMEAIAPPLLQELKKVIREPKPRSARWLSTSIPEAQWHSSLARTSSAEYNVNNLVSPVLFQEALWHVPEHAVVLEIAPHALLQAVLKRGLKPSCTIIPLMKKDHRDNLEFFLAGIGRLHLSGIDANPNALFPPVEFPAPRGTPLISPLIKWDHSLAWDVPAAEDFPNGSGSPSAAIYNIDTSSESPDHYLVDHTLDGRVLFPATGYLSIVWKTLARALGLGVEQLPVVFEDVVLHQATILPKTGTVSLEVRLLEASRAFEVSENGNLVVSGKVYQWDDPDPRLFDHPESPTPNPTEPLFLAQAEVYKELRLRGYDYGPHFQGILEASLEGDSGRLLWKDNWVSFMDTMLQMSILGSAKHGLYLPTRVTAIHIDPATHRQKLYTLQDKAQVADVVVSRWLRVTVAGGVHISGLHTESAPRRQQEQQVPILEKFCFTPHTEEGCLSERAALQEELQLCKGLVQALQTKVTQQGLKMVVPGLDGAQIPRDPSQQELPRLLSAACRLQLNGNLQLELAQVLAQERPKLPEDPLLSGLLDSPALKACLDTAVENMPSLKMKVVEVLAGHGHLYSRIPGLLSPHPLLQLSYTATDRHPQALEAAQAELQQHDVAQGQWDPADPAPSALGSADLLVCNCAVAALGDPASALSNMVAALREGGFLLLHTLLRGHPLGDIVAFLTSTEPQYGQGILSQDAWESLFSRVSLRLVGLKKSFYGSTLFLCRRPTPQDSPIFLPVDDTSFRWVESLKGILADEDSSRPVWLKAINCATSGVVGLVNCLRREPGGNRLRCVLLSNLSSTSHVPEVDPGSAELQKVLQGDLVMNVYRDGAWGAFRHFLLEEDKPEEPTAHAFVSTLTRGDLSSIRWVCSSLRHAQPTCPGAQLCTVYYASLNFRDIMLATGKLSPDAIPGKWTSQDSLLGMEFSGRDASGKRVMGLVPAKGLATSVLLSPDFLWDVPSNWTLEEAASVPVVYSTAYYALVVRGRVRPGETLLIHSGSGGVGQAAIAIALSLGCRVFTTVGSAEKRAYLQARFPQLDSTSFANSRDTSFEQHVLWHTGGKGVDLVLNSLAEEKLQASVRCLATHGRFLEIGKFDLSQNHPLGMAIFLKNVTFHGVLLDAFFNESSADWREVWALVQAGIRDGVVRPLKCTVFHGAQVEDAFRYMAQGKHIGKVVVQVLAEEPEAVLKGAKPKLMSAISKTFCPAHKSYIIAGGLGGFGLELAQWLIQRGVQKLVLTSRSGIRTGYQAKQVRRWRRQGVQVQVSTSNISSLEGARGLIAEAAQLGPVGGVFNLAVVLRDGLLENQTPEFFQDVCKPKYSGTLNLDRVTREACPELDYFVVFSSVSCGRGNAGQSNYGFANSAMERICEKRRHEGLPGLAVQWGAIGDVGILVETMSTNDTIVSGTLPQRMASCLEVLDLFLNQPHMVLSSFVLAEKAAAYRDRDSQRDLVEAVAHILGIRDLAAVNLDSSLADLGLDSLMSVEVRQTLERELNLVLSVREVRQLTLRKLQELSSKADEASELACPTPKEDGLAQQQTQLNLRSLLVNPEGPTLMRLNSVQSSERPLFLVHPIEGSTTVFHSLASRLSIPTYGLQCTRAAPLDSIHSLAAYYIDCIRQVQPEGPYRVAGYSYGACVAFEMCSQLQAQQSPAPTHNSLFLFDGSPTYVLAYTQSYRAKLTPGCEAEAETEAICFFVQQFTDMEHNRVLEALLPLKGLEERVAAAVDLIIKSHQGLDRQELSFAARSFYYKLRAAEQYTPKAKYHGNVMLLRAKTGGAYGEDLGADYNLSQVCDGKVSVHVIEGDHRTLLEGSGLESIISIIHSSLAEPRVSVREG

CS(=O)(=O)N1CCC2(CC1)N=C(c1ccc(-c3ccc4[nH]ncc4c3)cc1)N(CC1CN(C(=O)C3CC3)C1)C2=O [compound 763, 3-{[1-(Cyclopropylcarbonyl)azetidin-3-yl]methyl}-2-[4-(1H-indazol-5-yl)phenyl]-8-(methylsulfonyl)-1,3,8-triazaspiro[4.5]dec-1-en-4-one]
inhibition at 10 µM: 63% | IC50: ~5.37 µM

O=C(C1CC1)N1CC[C@@H](CN2C(=O)C3(CCN(CCO)CC3)N=C2c2ccc(-c3ccc4cnccc4c3)cc2)C1 [compound 159, 3-{[(3R)-1-(Cyclopropylcarbonyl)pyrrolidin-3-yl]methyl}-8-(2-hydroxyethyl)-2-(4-isoquinolin-6-ylphenyl)-1,3,8-triazaspiro[4.5]dec-1-en-4-one]
inhibition at 10 µM: 116% | IC50: 0.0794 µM

O=C(C1CC1)N1CCC[C@H](CN2C(=O)C3(CC3)N=C2c2ccc(-c3ccc4[nH]ncc4c3)cc2)C1 [compound 816, (S)-5-(4-(1H-indazol-5-yl)phenyl)-6-((1-(cyclopropanecarbonyl)piperidin-3-yl)methyl)-4,6-diazaspiro[2.4]hept-4-en-7-one]
inhibition at 10 µM: 4% | IC50: > 10 µM

O=C(C1CC1)N1CCC[C@@H](CN2C(=O)C3(CC3)N=C2c2ccc(-c3ccc4sccc4c3)cc2)C1 [compound 394, 5-[4-(1-Benzothiophen-5-yl)phenyl]-6-{[(3R)-1-(cyclopropylcarbonyl)piperidin-3-yl]methyl}-4,6-diazaspiro[2.4]hept-4-en-7-one]
inhibition at 10 µM: 84% | IC50: 1.07 µM

COC(=O)N1CC(CN2C(=O)C3(CCOC3)N=C2c2ccc(-c3ccc(-c4cnn(C)c4)cc3)cc2)C1 (centres unmarked) [compound 927, methyl 3-((2-(4′-(1-methyl-1H-pyrazol-4-yl)-[1,1′-biphenyl]-4-yl)-4-oxo-7-oxa-1,3-diazaspiro[4.4]non-1-en-3-yl)methyl)azetidine-1-carboxylate]
inhibition at 10 µM: -2% | IC50: > 10 µM

CC(O)C(=O)N1CC(CN2C(=O)C3(CCOC3)N=C2c2ccc(-c3ccc4c(cnn4C)c3)cc2)C1 (centres unmarked) [compound 723, 3-{[1-(2-Hydroxypropanoyl)azetidin-3-yl]methyl}-2-[4-(1-methyl-1H-indazol-5-yl)phenyl]-7-oxa-1,3-diazaspiro[4.4]non-1-en-4-one]
inhibition at 10 µM: 55% | IC50: 7.94 µM

Cc1cc(C2=NC3(CC3)C(=O)N2C[C@@H]2CCN(C(=O)C3CC3)C2)ccc1-c1ccc2occc2c1 [compound 180, 5-[4-(1-Benzofuran-5-yl)-3-methylphenyl]-6-{[(3R)-1-(cyclopropylcarbonyl)pyrrolidin-3-yl]methyl}-4,6-diazaspiro[2.4]hept-4-en-7-one]
inhibition at 10 µM: 101% | IC50: 0.138 µM

O=C(N1CC(CN2C(=O)C3(CCOCC3)N=C2c2ccc(-c3ccc4occc4c3)cc2)C1)C(F)(F)F [compound 961, 2-(4-(benzofuran-5-yl)phenyl)-3-((1-(2,2,2-trifluoroacetyl)azetidin-3-yl)methyl)-8-oxa-1,3-diazaspiro[4.5]dec-1-en-4-one]
inhibition at 10 µM: 7% | IC50: > 10 µM

Cc1cc2cc(-c3ccc(C4=NC5(CC5)C(=O)N4CC4CN(C(=O)C5CC5)C4)cc3)ccc2o1 [compound 178, 6-{[1-(Cyclopropylcarbonyl)azetidin-3-yl]methyl}-5-[4-(2-methyl-1-benzofuran-5-yl)phenyl]-4,6-diazaspiro[2.4]hept-4-en-7-one]
inhibition at 10 µM: 108% | IC50: 0.102 µM

CC(C)C(=O)N1CCC2(CC1)N=C(c1ccc(-c3ccc4cnccc4c3)cc1)N(C[C@@H]1CCN(C(=O)C3CC3)C1)C2=O [compound 143, 3-{[(3R)-1-(Cyclopropylcarbonyl)pyrrolidin-3-yl]methyl}-2-(4-isoquinolin-6-ylphenyl)-8-(2-methylpropanoyl)-1,3,8-triazaspiro[4.5]dec-1-en-4-one]
inhibition at 10 µM: 119% | IC50: 0.0363 µM

Cn1ncc2cc(-c3ccc(C4=NC5(CCOCC5)C(=O)N4CC4CN(C(=O)N5CCCC5)C4)cc3)ccc21 [compound 709, 2-[4-(1-Methyl-1H-indazol-5-yl)phenyl]-3-{[1-(pyrrolidin-1-ylcarbonyl)azetidin-3-yl]methyl}-8-oxa-1,3-diazaspiro[4.5]dec-1-en-4-one]
inhibition at 10 µM: 64% | IC50: 4.07 µM

Cc1cc(C2=NC3(CC3)C(=O)N2CC2CN(C(=O)C3CC3)C2)ccc1-c1ccc2c(cnn2C)c1 [compound 436, 6-{[1-(Cyclopropylcarbonyl)azetidin-3-yl]methyl}-5-[3-methyl-4-(1-methyl-1H-indazol-5-yl)phenyl]-4,6-diazaspiro[2.4]hept-4-en-7-one]
inhibition at 10 µM: 43% | IC50: ~10 µM

O=C(C1CC1)N1CC(CN2C(=O)C3(CC3)N=C2c2ccc(-c3ccc(N4CCOCC4)nc3)cc2)C1 [compound 806, 6-((1-(cyclopropanecarbonyl)azetidin-3-yl)methyl)-5-(4-(6-morpholinopyridin-3-yl)phenyl)-4,6-diazaspiro[2.4]hept-4-en-7-one]
inhibition at 10 µM: -6% | IC50: > 10 µM

O=C(C1CC1)N1CC(CN2C(=O)C3(CC3)N=C2c2ccc(-c3ccc(Br)cn3)cc2)C1 [compound 887, 5-(4-(5-bromopyridin-2-yl)phenyl)-6-((1-(cyclopropanecarbonyl)azetidin-3-yl)methyl)-4,6-diazaspiro[2.4]hept-4-en-7-one]
inhibition at 10 µM: 73% | IC50: 4.07 µM

CC(=O)N1CCC2(CC1)N=C(c1ccc(-c3ccc4[nH]ncc4c3)cc1)N(C[C@@H]1CCN(C(=O)C3CC3)C1)C2=O [compound 148, 8-Acetyl-3-{[(3R)-1-(cyclopropylcarbonyl)pyrrolidin-3-yl]methyl}-2-[4-(1H-indazol-5-yl)phenyl]-1,3,8-triazaspiro[4.5]dec-1-en-4-one]
inhibition at 10 µM: 105% | IC50: 0.302 µM

Cn1ncc2cc(-c3ccc(C4=NC5(CCOC5)C(=O)N4C[C@@H]4CCN(C(=O)N5CCCC5)C4)cc3)ccc21 (stereo partly drawn) [compound 693, 2-[4-(1-Methyl-1H-indazol-5-yl)phenyl]-3-{[(3S)-1-(pyrrolidin-1-ylcarbonyl)pyrrolidin-3-yl]methyl}-7-oxa-1,3-diazaspiro[4.4]non-1-en-4-one]
inhibition at 10 µM: 48% | IC50: 9.77 µM

CC(C)N1CCC2(CC1)N=C(c1ccc(-c3ccc4c(cnn4C)c3)cc1)N(CC1CN(C(=O)C3CC3)C1)C2=O [compound 169, 3-{[1-(Cyclopropylcarbonyl)azetidin-3-yl]methyl}-8-(1-methylethyl)-2-[4-(1-methyl-1H-indazol-5-yl)phenyl]-1,3,8-triazaspiro[4.5]dec-1-en-4-one]
inhibition at 10 µM: 45.7% | IC50: > 10 µM

O=C(C1CC1)N1CC(CN2C(=O)C3(CC3)N=C2c2ccc(-c3ccc4oncc4c3)cc2)C1 [compound 504, 5-[4-(1,2-Benzisoxazol-5-yl)phenyl]-6-{[1-(cyclopropylcarbonyl)azetidin-3-yl]methyl}-4,6-diazaspiro[2.4]hept-4-en-7-one]
inhibition at 10 µM: 42% | IC50: 8.51 µM

CC(O)C(=O)N1CC(CN2C(=O)C3(CCOC3)N=C2c2ccc(-c3ccc(-c4cnn(C)c4)cc3)cc2)C1 (centres unmarked) [compound 711, 3-{[1-(2-Hydroxypropanoyl)azetidin-3-yl]methyl}-2-[4′-(1-methyl-1H-pyrazol-4-yl)biphenyl-4-yl]-7-oxa-1,3-diazaspiro[4.4]non-1-en-4-one]
inhibition at 10 µM: 60% | IC50: 6.03 µM

O=C(C1CC1)N1CC[C@@H](CN2C(=O)C3(CC3)N=C2c2ccc(-c3ccc4c(c3)OCCO4)cc2)C1 [compound 456, 6-{[(3R)-1-(Cycloprop-ylcarbonyl)pyrrolidin-3-yl]methyl}-5-[4-(2,3-dihydro-1,4-benzodioxin-6-yl)phenyl]-4,6-diazaspiro[2.4]hept-4-en-7-one]
inhibition at 10 µM: 65% | IC50: 6.92 µM

COC(=O)N1CC(CN2C(=O)C3(CCOC3)N=C2c2ccc(-c3ccc4c(cnn4C)c3)cc2)C1 (centres unmarked) [compound 905, methyl 3-((2-(4-(1-methyl-1H-indazol-5-yl)phenyl)-4-oxo-7-oxa-1,3-diazaspiro[4.4]non-1-en-3-yl)methyl)azetidine-1-carboxylate]
inhibition at 10 µM: -7% | IC50: > 10 µM

Cn1ncc2cc(-c3ccc(C4=NC5(CCOC5)C(=O)N4C[C@@H]4CCN(S(C)(=O)=O)C4)cc3)ccc21 (stereo partly drawn) [compound 933, 2-(4-(1-methyl-1H-indazol-5-yl)phenyl)-3-(((S)-1-(methylsulfonyl)pyrrolidin-3-yl)methyl)-7-oxa-1,3-diazaspiro[4.4]non-1-en-4-one]
inhibition at 10 µM: 5% | IC50: > 10 µM

Cc1sc2ccc(-c3ccc(C4=NC5(CCN(C(=O)CN(C)C)CC5)C(=O)N4C[C@@H]4CCN(C(=O)C5CC5)C4)cc3)cc2c1C [compound 182, 3-{[(3R)-1-(Cyclopropylcarbonyl)pyrrolidin-3-yl]methyl}-2-[4-(2,3-dimethyl-1-benzothiophen-5-yl)phenyl]-8-(N,N-dimethylglycyl)-1,3,8-triazaspiro[4.5]dec-1-en-4-one]
inhibition at 10 µM: 104% | IC50: 0.138 µM

Cn1cc(-c2ccc(C3=NC4(CC4)C(=O)N3CC3CCN(C(=O)C4CC4)CC3)cc2)cn1 [compound 9, 6-{[1-(Cyclopropylcarbonyl)piperidin-4-yl]methyl}-5-[4-(1-methyl-1H-pyrazol-4-yl)phenyl]-4,6-diazaspiro[2.4]hept-4-en-7-one]
inhibition at 10 µM: 11.4% | IC50: > 10 µM

O=C(C1CC1)N1CC(CN2C(=O)C3(CC3)N=C2c2ccc(-c3ccc4nn(CC5CC5)cc4c3)cc2)C1 [compound 501, 6-{[1-(Cyclopropylcarbonyl)azetidin-3-yl]methyl}-5-{4-[2-(cyclopropylmethyl)-2H-indazol-5-yl]phenyl}-4,6-diazaspiro[2.4]hept-4-en-7-one]
inhibition at 10 µM: 52% | IC50: 8.32 µM
